Read-outs that look alike come from different tables or passages of the source.
Assay: Solubility in acidic medium
Assay type: physicochemical

solubility in acidic medium: low solubility | solubility in acidic medium (listed as MPA): poor solubility
SMILES: COc1c(C)c2c(c(O)c1C/C=C(\C)CCC(=O)O)C(=O)OC2 [mycophenolic acid]
